This is an account of results in article PMC8151276, “An Integrated Approach toward NanoBRET Tracers for Analysis of GPCR Ligand Engagement” (Molecules, 2021).

What all share (format): binding
The target in one test is T1, AVPR2 (Homo sapiens, UniProt P30518).
T1 construct: purchased Promega (in-house HiBiT-GPCR construct library, NanoBRET)
In words: NanoBRET screen HiBiT-AVPR2 in HEK293. Conditions: AVPR2. The essentials:
(§1)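 Read-out: NanoBRET after LgBiT complementation of cell-surface HiBiT-GPCR in transfected HEK293 cells. Tracer (1 μM, 0.1 μM) incubated 1.5 h, alone or with 20 μM competing unmodified compound; response is BRETtracer/BRETcontrol, with ≥1.5-fold scored as positive binding.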

A further test concerns the target T2, RXFP3 (Homo sapiens, UniProt Q9NSD7).
T2 construct: purchased Promega (in-house HiBiT-GPCR construct library, NanoBRET)
T2 sequence (Q9NSD7 1-469): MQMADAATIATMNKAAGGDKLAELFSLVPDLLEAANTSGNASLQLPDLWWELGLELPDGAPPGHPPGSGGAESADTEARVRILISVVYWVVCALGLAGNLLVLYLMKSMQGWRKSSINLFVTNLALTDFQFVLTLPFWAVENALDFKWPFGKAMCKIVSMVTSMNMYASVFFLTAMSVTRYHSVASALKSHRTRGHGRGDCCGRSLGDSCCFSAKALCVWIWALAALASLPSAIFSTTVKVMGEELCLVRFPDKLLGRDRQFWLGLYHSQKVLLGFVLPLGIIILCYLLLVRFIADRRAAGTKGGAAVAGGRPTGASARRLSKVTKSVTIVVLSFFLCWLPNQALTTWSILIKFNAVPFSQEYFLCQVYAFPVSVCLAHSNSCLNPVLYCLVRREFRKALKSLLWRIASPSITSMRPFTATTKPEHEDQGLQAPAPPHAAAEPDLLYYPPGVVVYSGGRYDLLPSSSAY
The experiment in a line: NanoBRET screen HiBiT-RXFP3 in HEK293. Conditions: RXFP3. In outline: as §1

The target in another test is T3, HTR4 (Homo sapiens, UniProt Q13639).
T3 construct: purchased Promega (in-house HiBiT-GPCR construct library, NanoBRET)
The experiment in a line: NanoBRET screen HiBiT-HTR4 in HEK293. The following applies: HTR4. The essentials:
as §1

The next test has as its target T4, CCR5 (Homo sapiens, UniProt P51681).
T4 construct: purchased Promega (in-house HiBiT-GPCR construct library, NanoBRET)
The experiment in a line: NanoBRET screen HiBiT-CCR5 in HEK293. Conditions: CCR5. The essentials: as §1

Another test addresses T5, CCR3 (Homo sapiens, UniProt P51677).
T5 construct: purchased Promega (in-house HiBiT-GPCR construct library, NanoBRET)
T5 sequence (P51677 1-355): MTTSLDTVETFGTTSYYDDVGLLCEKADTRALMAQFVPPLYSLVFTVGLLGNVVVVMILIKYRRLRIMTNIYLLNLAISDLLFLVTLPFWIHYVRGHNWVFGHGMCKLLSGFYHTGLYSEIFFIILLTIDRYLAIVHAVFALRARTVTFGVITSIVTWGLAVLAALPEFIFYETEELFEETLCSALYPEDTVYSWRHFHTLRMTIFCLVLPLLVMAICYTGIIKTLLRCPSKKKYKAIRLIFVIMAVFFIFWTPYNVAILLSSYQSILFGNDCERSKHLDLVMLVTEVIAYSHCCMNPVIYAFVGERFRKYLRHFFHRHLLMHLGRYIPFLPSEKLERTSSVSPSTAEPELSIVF
In words: NanoBRET screen HiBiT-CCR3 in HEK293. The following applies: CCR3. In outline: as §1

T3 sequence (Q13639 whole entry): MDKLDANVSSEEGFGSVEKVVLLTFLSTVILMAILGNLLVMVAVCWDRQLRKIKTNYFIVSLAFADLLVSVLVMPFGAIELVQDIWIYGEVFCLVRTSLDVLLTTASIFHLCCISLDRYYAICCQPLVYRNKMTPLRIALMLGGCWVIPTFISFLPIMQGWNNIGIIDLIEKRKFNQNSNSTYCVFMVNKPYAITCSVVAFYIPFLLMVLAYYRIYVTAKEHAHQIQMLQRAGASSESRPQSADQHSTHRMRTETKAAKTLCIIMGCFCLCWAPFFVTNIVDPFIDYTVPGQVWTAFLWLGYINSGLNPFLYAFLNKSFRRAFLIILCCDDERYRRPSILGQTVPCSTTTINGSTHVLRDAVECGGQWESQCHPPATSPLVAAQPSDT
T1 sequence (P30518 whole entry): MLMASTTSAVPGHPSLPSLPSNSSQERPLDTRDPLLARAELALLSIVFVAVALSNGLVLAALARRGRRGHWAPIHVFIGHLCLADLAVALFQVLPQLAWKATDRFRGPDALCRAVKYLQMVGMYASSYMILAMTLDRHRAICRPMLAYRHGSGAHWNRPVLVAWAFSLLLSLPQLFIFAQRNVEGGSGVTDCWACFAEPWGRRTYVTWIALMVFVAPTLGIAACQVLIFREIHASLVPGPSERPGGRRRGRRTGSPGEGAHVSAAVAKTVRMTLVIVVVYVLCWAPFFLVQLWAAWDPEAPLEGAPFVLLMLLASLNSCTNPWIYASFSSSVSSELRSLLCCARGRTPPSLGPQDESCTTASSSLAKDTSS
T4 sequence (P51681 whole entry): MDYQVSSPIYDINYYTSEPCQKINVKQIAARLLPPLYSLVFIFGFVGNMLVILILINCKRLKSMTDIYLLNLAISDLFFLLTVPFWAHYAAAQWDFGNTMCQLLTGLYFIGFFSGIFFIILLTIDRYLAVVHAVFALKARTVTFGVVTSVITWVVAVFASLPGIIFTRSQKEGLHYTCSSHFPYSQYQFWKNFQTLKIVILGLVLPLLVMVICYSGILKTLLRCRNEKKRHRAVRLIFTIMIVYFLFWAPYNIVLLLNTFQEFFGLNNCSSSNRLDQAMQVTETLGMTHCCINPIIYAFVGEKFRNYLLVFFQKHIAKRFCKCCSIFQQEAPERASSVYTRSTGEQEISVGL

As to `CN1CCN(C2=Nc3cc(Cl)ccc3Nc3ccc(CNC(=O)CCOCCOCCOCCOCCNC(=O)CCc4ccc5n4[B-](F)(F)[N+]4=C(c6ccc[nH]6)C=CC4=C5)cc32)CC1` [Clozapine-b-2-NB590], the “NanoBRET Fold Response” value amounted to 1.05 at AVPR2 (0.1μM tracer); 0.95 on AVPR2 (1μM tracer); 0.99 on RXFP3 (0.1μM tracer); 1.04 at RXFP3 (1μM tracer); 0.98 on HTR4 (0.1μM tracer); 0.99 at HTR4 (1μM tracer). The “NanoBRET Fold Response” value at CCR5 (0.1μM tracer) is recorded as 1.05; on CCR5 (1μM tracer), 0.92; at CCR3 (0.1μM tracer) it was 0.98; at CCR3 (1μM tracer), 1.00.

In the case of `Cc1nc2n(c(=O)c1CCN1CCC(c3noc4cc(F)ccc34)CC1)CCCC2OC(=O)NCCOCCOCCOCCOCCNC(=O)CCc1ccc2n1[B-](F)(F)[N+]1=C(c3ccc[nH]3)C=CC1=C2` (centres unmarked) [Risperidone-2-NB590], the “NanoBRET Fold Response” value on AVPR2 (tracer 0.1μM) was found to be 1.04; at AVPR2 (tracer 1μM), 1.01; at RXFP3 (tracer 0.1μM), 1.00; at RXFP3 (tracer 1μM), 1.00; on HTR4 (tracer 0.1μM), 1.08; on HTR4 (tracer 1μM) it was 1.51. Also, the “NanoBRET Fold Response” value turned out to be 0.96 at CCR5 (tracer 0.1μM), 0.90 on CCR5 (tracer 1μM), 1.06 on CCR3 (tracer 0.1μM) and 1.27 on CCR3 (tracer 1μM).
